Measurements: patent US20220023231A1, “METHOD OF TREATING POSTPRANDIAL INFLAMMATION AND PREVENTING WEIGHT GAIN” (DASMAN DIABETES INSTITUTE, priority 2020, published 2022)

Columns and labels:
THP-1 cells [1] = experiment: Flow cytometry (FACS) assessment of lipid accumulation in TNF-α stimulated THP-1 derived macrophages; assay type: cell-based, Human; details: in response to the presence of TNF-α
Method: (§1) Cell culture: Human monocytic leukemia cell line (THP-1) cells were purchased from American Type Culture Collection (ATCC). Cell cultures were maintained in RPMI-1640 culture medium (Gibco, Life Technologies, Grand Island, USA) supplemented with 10% fetal bovine serum (Gibco, Life Technologies, Grand Island, N.Y., USA), 2 mM glutamine (Gibco, Invitrogen, Grand Island, N.Y., USA), 1 mM sodium pyruvate, 10 mM HEPES, 100 ug/m1 Normocin 50 U/ml penicillin and 50 μg/m1 streptomycin (P/S; Gibco, Invitrogen, Grand Island, N.Y., USA) and incubated at 37° C. (with humidity) in 5% CO2.
(§2) Cell stimulation: Prior to stimulation, THP-1 cells were plated in 24-well plates (Costar, Corning Incorporated, Corning, N.Y., USA) at 5×10^5 cells/well cell density unless indicated otherwise. […]

macrophage = experiment: Fatty acid uptake related gene expression and intracellular fat in macrophages/monocytes exposed to palmitic acid; assay type: cell-based
[2] = Constant high fat diet (HFD) in mice with daily drinkable dose; assay type: in vivo, mouse
From the text: (§3) A further experiment was designed to test whether constant daily doses of Triacsin C could prevent weight gain (or the development of obesity and other weight gain related diseases). […] Mice were placed on a constant high fat diet (HFD) for up to 5 weeks in the presence of a daily (drinkable) dose of either Triacsin C or the vehicle control (FIG. 9(A)).

THP-1 cells [3] = experiment: Oil Red O staining of lipid accumulation in TNF-α stimulated THP-1 derived macrophages; assay type: cell-based, Human; details: in response to TNF-α (10 ng/ml)
Method: as §1, §2
Oil Red O staining: To determine the degree of lipid accumulation, the accumulation of cytoplasmic triglycerides in cells were measured by staining with Oil Red O (SigmaAldrich, St Louis, Mo., USA). […]

human macrophages = experiment: Inflammatory and infiltration marker gene expression in human macrophages exposed to palmitic acid; assay type: cell-based; details: 30 minutes pre-treatment before addition of palmitic acid
[4] = tested on: pro-inflammatory monocytes (CD45+/Ly6C/CD11b+ cells); experiment: Acute high fat food feeding in mice, pro-inflammatory monocytes in blood by flow cytometry; assay type: in vivo, mouse
Method: Further experiments were developed to test the utility of Triacsin C as an anti-inflammatory and/or weight gain prevention drug in a mouse model. Base line blood samples were taken from each mouse before feeding. Mice were then administered either Triacsin C (10 mg/m1) or a vehicle (control) in a drinkable form 30 minutes prior to introducing them to high fat food. Four hours after food consumption another blood sample was collected from each mouse and the inflammatory response was measured using flow cytometry to look for pro-inflammatory monocytes (CD45^+/Ly6C/CD11b^+ cells). (See FIGS. 7(A)-7(B)) The experiment was repeated 5 times on non-consecutive days and also confirmed that the dose was safe.
as §3

THP-1 cells [5] = experiment: IL-1β ELISA and TNF-α / CD11b mRNA expression in macrophage cells after TNF-α; assay type: cell-based, Human; details: in response to TNF-α treatment
Method: as §1, §2

[6] = daily dose, HFD, versus vehicle control
[7] = low daily drinkable dose, HFD up to 5 weeks

CCOC(=O)[C@@]1(CCCCCCOc2ccc(Cl)cc2)CO1 [Etomoxir]
lipid accumulation (FACS, cell size and granulation) (THP-1 cells [1]): increased lipid accumulation

CCC/C=C/C/C=C/C=C/C=NNN=O [Triacsin C, N-(((2E,4E,7E)-undeca-2,4,7-trienylidene)amino)nitrous amide]
amount of intracellular fat found within monocytes (macrophage; data not shown): reduced the amount of intracellular fat found within monocytes | expression of fatty acid uptake-related genes (macrophage; pre-treatment, response to palmitic acid (FIG. 5)): inhibited expression of fatty acid uptake-related genes | adipose tissue (fat) of livers [2, 6]: significantly less adipose tissue | liver size [2, 6]: smaller | increase in inflammatory monocytes from long term HFD [2, 7]: prevented the increase in inflammatory monocytes | weight gain resulting from HFD [2, 7]: dramatically prevented | lipid accumulation (FACS, cell size and granulation) (THP-1 cells [1]): no significant change in apparent lipid accumulation | lipid accumulation (Oil Red O staining) (THP-1 cells [3]): prevents lipid accumulation | infiltration markers (CD11b, CCR2, CD80) (human macrophages): reduce infiltration markers | upregulation of monocytic inflammatory markers (IL-1b, CD11c, HLA-DR) (human macrophages): reduce the upregulation of monocytic inflammatory markers | safety of the dose ([4]; 10 mg/m1 drinkable, repeated 5 times on non-consecutive days): safe | inflammatory response in monocytes (CD45+, Ly6C+, CD11b+ cells) ([4]; drinkable, 30 minutes prior to high fat food, blood four hours after food): inhibit the inflammatory response in monocytes | reduction of inflammatory upregulation ([4]; lower dose, four-hour acute high fat diet feeding): 10% | pro-inflammatory monocytes ([4]; lower dose, four-hour acute high fat diet feeding, control 34.2%): 25.4% | inflammatory markers (IL-1B protein, TNF-α mRNA, CD11b mRNA) (THP-1 cells [5]): little to no change in inflammatory markers
